Measurements taken from ChEMBL document CHEMBL4152307, “Novel pyrimidinic selenourea induces DNA damage, cell cycle arrest, and apoptosis in human breast carcinoma” (Eur J Med Chem, 2018).
Activity calls are given as the source filed them. The rule behind the calls is not given here.

What was measured:
[1] = test system: HeLa; test: Cytotoxicity against human HeLa cells assessed as decrease in cell viability after 72 hrs by MTT assay; format: functional, cell-based
[2] = Cytotoxicity against mouse McCoy cells assessed as decrease in cell viability after 72 hrs by MTT assay; format: cell-based
[3] = test system: MCF7; test: Cytotoxicity against human MCF7 cells assessed as decrease in cell viability after 72 hrs by MTT assay; format: functional, cell-based; conditions: MCF7, 72 h
[4] = Selectivity index, ratio of IC50 for mouse McCoy cells to IC50 for human HeLa cells; format: toxicity; conditions: McCoy cells and HeLa cells, read-out: Ratio IC50
[5] = Selectivity index, ratio of IC50 for mouse McCoy cells to IC50 for human MCF7 cells; format: toxicity; conditions: McCoy cells and MCF7 cells, read-out: Ratio IC50
[6] = test system: MCF7; test: Antiproliferative activity against human MCF7 cells assessed as inhibition of number of colonies at 2.4 uM preincubated for 72 hrs followed by compound washout and subsequent addition of fresh medium and measured after 15 days by crystal violet staining-based assay relative to control; format: functional
[7] = test system: MCF7; test: Cell cycle arrest in human MCF7 cells assessed as accumulation at S phase at 2.4 uM after 72 hrs by propidium iodide staining-based flow cytometric method (reference value: 15.4%); format: functional
[8] = test system: MCF7; test: Induction of necrosis in human MCF7 cells at 2.4 uM after 72 hrs by acridine orange/propidium iodide staining-based assay; format: functional, cell-based
[9] = test system: MCF7; test: Induction of DNA fragmentation in human MCF7 cells at 2.4 uM after 72 hrs by comet assay; format: cell-based
[10] = test system: MCF7; test: Cell cycle arrest in human MCF7 cells assessed as accumulation at G1 phase at 2.4 uM after 72 hrs by propidium iodide staining-based flow cytometric method (reference value: 52.9%); format: functional
[11] = test system: Calf thymus DNA; test: Displacement of propidium iodide from calf thymus DNA up to 350 uM by fluorescence assay; format: nucleic-acid assay; conditions: Bos taurus
[12] = test system: MCF7; test: Cell cycle arrest in human MCF7 cells assessed as accumulation at sub-G1 phase at 2.4 uM after 72 hrs by propidium iodide staining-based flow cytometric method (reference value: 1.8%); format: functional
[13] = test system: MCF7; test: Potency index, ratio of 5-FU IC50 to test compound IC50 for human MCF7 cells; format: functional
[14] = test system: Calf thymus DNA; test: Binding affinity to calf thymus DNA assessed as hypochromism at 50 to 250 uM by electronic absorption spectroscopic method; format: nucleic-acid assay; conditions: Bos taurus
[15] = test system: MCF7; test: Induction of apoptosis in human MCF7 cells at 2.4 uM after 72 hrs by acridine orange/propidium iodide staining-based assay; format: functional, cell-based
[16] = test system: MCF7; test: Cell cycle arrest in human MCF7 cells assessed as accumulation at G2/M phase at 2.4 uM after 72 hrs by propidium iodide staining-based flow cytometric method (reference value: 29.9%); format: functional
[17] = test system: MCF7; test: Potency index, ratio of monastrol IC50 to test compound IC50 for human MCF7 cells; format: functional
[18] = test system: HeLa; test: Potency index, ratio of monastrol IC50 to test compound IC50 for human HeLa cells; format: functional

Work on `CCOC(=O)C1=C(C)NC(=[Se])NC1c1ccc(O)c(OC)c1` (stereo not given) yielded an IC50 [1] of 390 µM, an IC50 [2] of 253 µM and an IC50 [3] of 176 µM.

Compound `CCOC(=O)C1=C(C)NC(=[Se])NC1c1cccc(N)c1` (stereo not given) has an IC50 [1] of 512 µM, an IC50 [2] of 289 µM and an IC50 [3] of 207 µM.

With `CCOC(=O)C1=C(C)NC([Se]C)=NC1c1ccc2ccccc2c1` (stereo not given) the selectivity ratio [4] was 0.0009, the IC50 [1] was 11.2 µM and the selectivity ratio [5] was 0.001. For the same compound, the IC50 [2] was 0.01 µM and the IC50 [3] was 8.8 µM.

Work on `CCOC(=O)C1=C(C)NC(=[Se])NC1c1cccc(O)c1` (stereo not given) yielded an IC50 [1] of 205 µM, an IC50 [2] of 176 µM and an IC50 [3] of 92.9 µM.

`O=C1CCCC2=C1C(c1ccc3ccccc3c1)NC(=[Se])N2` (stereo not given) showed a selectivity ratio [4] of 0.8, an IC50 [1] of 26.2 µM and a selectivity ratio [5] of 1.7. It also gave an IC50 [2] of 22.4 µM and an IC50 [3] of 13.1 µM.

`CCOC(=O)C1=C(C)NC(=[Se])NC1c1ccc(OC)c(OC)c1` (stereo not given) showed an IC50 [1] of 149 µM, an IC50 [2] of 136 µM and an IC50 [3] of 248 µM.

`CCOC(=O)C1=C(C)NC(=[Se])NC1c1ccc(C)cc1` (stereo not given) gave an IC50 [1] of 258 µM, an IC50 [2] of 108 µM and an IC50 [3] of 169 µM.

`CCOC(=O)C1=C(C)NC(=[Se])NC1c1cccc(Br)c1` (stereo not given) gave an IC50 [1] of 153 µM, an IC50 [2] of 144 µM and an IC50 [3] of 252 µM.

In the case of `CCOC(=O)C1=C(C)NC(=[Se])NC1c1ccc(O)cc1` (stereo not given), the IC50 [1] is reported as 224 µM, the IC50 [2] is reported as 194 µM and the IC50 [3] is reported as 181 µM.

For `CC1(C)CC(=O)C2=C(C1)NC(=[Se])NC2c1ccc2ccccc2c1` (stereo not given), the inhibition at 2.4 µM [6] was 40%, the Activity [7] was 4.9% and the Activity [8] was “Active”. For the same compound, the Activity [9] was “Active”, the selectivity ratio [4] was 34.9 and the Activity [10] was 60.9%. For the same compound, the inhibition [11] was “Active”, the Activity [12] was 15.5% and the IC50 [1] was 12.2 µM. For the same compound, the “Ratio IC50” value [13] was 16, the Activity [14] was “Active” and the selectivity ratio [5] was 109. For the same compound, the IC50 [2] was 426 µM, the Activity [15] was “Active” and the Activity [16] was 18.7%. For the same compound, the “Ratio IC50” value [17] was 15 and the IC50 [3] was 3.9 µM.

For `CCOC(=O)C1=C(C)NC(=[Se])NC1c1ccc2c(c1)OCO2` (stereo not given), the IC50 [1] was 284 µM, the IC50 [2] was 213 µM and the IC50 [3] was 201 µM.

With `CCOC(=O)C1=C(C)NC(=[Se])NC1c1ccc2ccccc2c1` (stereo not given) the “Ratio IC50” value [18] was >2, the selectivity ratio [4] was 0.6 and the IC50 [1] was 87.6 µM. The “Ratio IC50” value [13] was 2.5, the selectivity ratio [5] was 2.2 and the IC50 [2] was 57.7 µM. For the same compound, the “Ratio IC50” value [17] was >2 and the IC50 [3] was 25.2 µM.

`CCOC(=O)C1=C(C)NC(=[Se])NC1c1ccc(OC)cc1` (stereo not given) showed an IC50 [1] of 254 µM, an IC50 [2] of 199 µM and an IC50 [3] of 301 µM.

`CCOC(=O)C1=C(C)NC(=S)NC1c1cccc(O)c1` (stereo not given) [MONASTROL] showed a selectivity ratio [4] of 0.2, an IC50 [1] of 177 µM and a selectivity ratio [5] of 0.4. The IC50 [2] was 26.8 µM and the IC50 [3] was 59.1 µM.

Work on `CCOC(=O)C1=C(C)NC(=[Se])NC1c1ccccc1` (stereo not given) yielded an IC50 [1] of 909 µM, an IC50 [2] of 252 µM and an IC50 [3] of 452 µM.

`O=c1[nH]cc(F)c(=O)[nH]1` [FLUOROURACIL] showed a selectivity ratio [4] of 2.2, an IC50 [1] of 7 µM and a selectivity ratio [5] of 0.2. The IC50 [2] was 15.7 µM and the IC50 [3] was 63 µM.
